Measured values: ChEMBL document CHEMBL3091333, “Design, synthesis and biological evaluation of novel 4-anilinoquinazolines with C-6 urea-linked side chains as inhibitors of the epidermal growth factor receptor” (Bioorg Med Chem, 2013)
Calls of active or inactive are those of the source. No cut-off for these calls is given here.

Experiments:
[1] = system: NCI-H1975; test: Antiproliferative activity against human NCI-H1975 cells expressing EGFR T790M mutant after 72 hrs by SRB assay; assay type: functional, cell-based; conditions: NCI-H1975, 72 h
[2] = target: Epidermal growth factor receptor (Homo sapiens, UniProt P00533, L858M/T790M); test: Inhibition of EGFR T790M/[…] double mutant (unknown origin) expressed in baculovirus expression system using poly (Glu, Tyr) 4:1 as substrate after 60 mins by ELISA
[3] = target: T1, Epidermal growth factor receptor (Homo sapiens, UniProt P00533); test: Inhibition of wild type EGFR (unknown origin) expressed in baculovirus expression system using poly (Glu, Tyr) 4:1 as substrate after 60 mins by ELISA
[4] = system: A-431; test: Antiproliferative activity against human A431 cells after 72 hrs by SRB assay; assay type: functional, cell-based; conditions: A-431, 72 h
[5] = target: Fibroblast growth factor receptor 1 (Homo sapiens, UniProt P11362); test: Inhibition of FGFR1 (unknown origin) expressed in baculovirus expression system using poly (Glu, Tyr) 4:1 as substrate after 60 mins by ELISA
[6] = target: Insulin-like growth factor 1 receptor (Homo sapiens, UniProt P08069); test: Inhibition of IGF1R (unknown origin) expressed in baculovirus expression system using poly (Glu, Tyr) 4:1 as substrate after 60 mins by ELISA
[7] = target: Ephrin type-A receptor 2 (Homo sapiens, UniProt P29317); test: Inhibition of recombinant EPHA2 (unknown origin) using poly (Glu, Tyr) 4:1 as substrate after 60 mins by ELISA
[8] = target: Platelet-derived growth factor receptor beta (Homo sapiens, UniProt P09619); test: Inhibition of recombinant PDGFR-beta (unknown origin) using poly (Glu, Tyr) 4:1 as substrate after 60 mins by ELISA
[9] = target: Platelet-derived growth factor receptor alpha (Homo sapiens, UniProt P16234); test: Inhibition of recombinant PDGFR-alpha (unknown origin) using poly (Glu, Tyr) 4:1 as substrate after 60 mins by ELISA
[10] = target: Mast/stem cell growth factor receptor Kit (Homo sapiens, UniProt P10721); test: Inhibition of recombinant c-Kit (unknown origin) using poly (Glu, Tyr) 4:1 as substrate after 60 mins by ELISA
[11] = target: Vascular endothelial growth factor receptor 1 (Homo sapiens, UniProt P17948); test: Inhibition of recombinant FLT-1 (unknown origin) using poly (Glu, Tyr) 4:1 as substrate after 60 mins by ELISA
[12] = target: Tyrosine-protein kinase ABL1 (Homo sapiens, UniProt P00519); test: Inhibition of recombinant ABL (unknown origin) using poly (Glu, Tyr) 4:1 as substrate after 60 mins by ELISA
[13] = target: Macrophage-stimulating protein receptor (Homo sapiens, UniProt Q04912); test: Inhibition of recombinant RON (unknown origin) using poly (Glu, Tyr) 4:1 as substrate after 60 mins by ELISA
[14] = target: Proto-oncogene tyrosine-protein kinase receptor Ret (Homo sapiens, UniProt P07949); test: Inhibition of recombinant RET (unknown origin) using poly (Glu, Tyr) 4:1 as substrate after 60 mins by ELISA
[15] = target: Receptor tyrosine-protein kinase erbB-4 (Homo sapiens, UniProt Q15303); test: Inhibition of recombinant ErbB4 (unknown origin) using poly (Glu, Tyr) 4:1 as substrate after 60 mins by ELISA
[16] = target: Receptor tyrosine-protein kinase erbB-2 (Homo sapiens, UniProt P04626); test: Inhibition of ErbB2 (unknown origin) expressed in baculovirus expression system using poly (Glu, Tyr) 4:1 as substrate after 60 mins by ELISA
[17] = target: T1, Epidermal growth factor receptor; test: Inhibition of EGF-induced EGFR phosphorylation in human A431 cells assessed as decrease in ERK phosphorylation at 0.01 to 10 uM incubated for 1 hr prior to EGF induction measured after 10 mins by Western blotting analysis; assay type: cell-based; conditions: A-431
[18] = target: T1, Epidermal growth factor receptor; test: Inhibition of EGF-induced EGFR phosphorylation in human A431 cells assessed as decrease in AKT phosphorylation at 0.01 to 10 uM incubated for 1 hr prior to EGF induction measured after 10 mins by Western blotting analysis; assay type: cell-based; conditions: A-431
[19] = target: T1, Epidermal growth factor receptor; test: Inhibition of EGF-induced EGFR phosphorylation in human A431 cells at 0.01 uM incubated for 1 hr prior to EGF induction measured after 10 mins by Western blotting analysis; assay type: cell-based; conditions: A-431
[20] = target: T1, Epidermal growth factor receptor; test: Inhibition of EGF-induced EGFR phosphorylation in human A431 cells incubated for 1 hr prior to EGF induction measured after 10 mins by Western blotting analysis; assay type: cell-based; conditions: A-431
[21] = target: Vascular endothelial growth factor receptor 2 (Homo sapiens, UniProt P35968); test: Inhibition of KDR (unknown origin) expressed in baculovirus expression system using poly (Glu, Tyr) 4:1 as substrate after 60 mins by ELISA

Epidermal growth factor receptor (Homo sapiens, UniProt P00533, L858M/T790M), sequence (P00533 25-1210 T790M/L858M limits assumed): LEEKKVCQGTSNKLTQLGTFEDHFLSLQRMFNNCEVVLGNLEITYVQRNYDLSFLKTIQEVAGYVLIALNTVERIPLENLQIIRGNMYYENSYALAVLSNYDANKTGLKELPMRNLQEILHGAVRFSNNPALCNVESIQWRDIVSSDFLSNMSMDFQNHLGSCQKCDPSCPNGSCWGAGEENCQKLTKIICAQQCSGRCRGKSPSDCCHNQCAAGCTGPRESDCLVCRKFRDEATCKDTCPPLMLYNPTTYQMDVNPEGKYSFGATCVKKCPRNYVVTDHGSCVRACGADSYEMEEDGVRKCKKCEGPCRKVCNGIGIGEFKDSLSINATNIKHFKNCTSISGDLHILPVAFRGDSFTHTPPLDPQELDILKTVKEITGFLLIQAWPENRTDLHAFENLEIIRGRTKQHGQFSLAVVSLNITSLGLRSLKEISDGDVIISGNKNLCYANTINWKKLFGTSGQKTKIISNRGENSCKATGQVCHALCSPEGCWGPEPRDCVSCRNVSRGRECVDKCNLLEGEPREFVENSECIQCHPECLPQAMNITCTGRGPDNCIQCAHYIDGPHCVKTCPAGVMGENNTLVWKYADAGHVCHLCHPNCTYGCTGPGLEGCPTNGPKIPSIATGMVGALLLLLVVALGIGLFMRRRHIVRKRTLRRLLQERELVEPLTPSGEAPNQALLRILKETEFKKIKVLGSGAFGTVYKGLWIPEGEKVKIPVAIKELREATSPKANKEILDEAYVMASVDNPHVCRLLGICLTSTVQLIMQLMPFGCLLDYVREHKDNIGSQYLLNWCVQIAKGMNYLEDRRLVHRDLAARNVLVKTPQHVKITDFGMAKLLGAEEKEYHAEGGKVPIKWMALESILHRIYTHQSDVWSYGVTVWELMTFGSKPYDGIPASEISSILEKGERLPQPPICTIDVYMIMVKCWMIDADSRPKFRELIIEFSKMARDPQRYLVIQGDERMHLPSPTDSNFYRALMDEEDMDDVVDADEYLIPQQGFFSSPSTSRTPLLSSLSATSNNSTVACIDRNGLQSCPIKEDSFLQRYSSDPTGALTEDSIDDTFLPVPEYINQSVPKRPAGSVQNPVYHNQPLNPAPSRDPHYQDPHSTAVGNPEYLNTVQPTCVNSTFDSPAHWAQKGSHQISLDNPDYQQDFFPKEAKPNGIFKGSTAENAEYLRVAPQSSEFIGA
T1 sequence (P00533 whole entry): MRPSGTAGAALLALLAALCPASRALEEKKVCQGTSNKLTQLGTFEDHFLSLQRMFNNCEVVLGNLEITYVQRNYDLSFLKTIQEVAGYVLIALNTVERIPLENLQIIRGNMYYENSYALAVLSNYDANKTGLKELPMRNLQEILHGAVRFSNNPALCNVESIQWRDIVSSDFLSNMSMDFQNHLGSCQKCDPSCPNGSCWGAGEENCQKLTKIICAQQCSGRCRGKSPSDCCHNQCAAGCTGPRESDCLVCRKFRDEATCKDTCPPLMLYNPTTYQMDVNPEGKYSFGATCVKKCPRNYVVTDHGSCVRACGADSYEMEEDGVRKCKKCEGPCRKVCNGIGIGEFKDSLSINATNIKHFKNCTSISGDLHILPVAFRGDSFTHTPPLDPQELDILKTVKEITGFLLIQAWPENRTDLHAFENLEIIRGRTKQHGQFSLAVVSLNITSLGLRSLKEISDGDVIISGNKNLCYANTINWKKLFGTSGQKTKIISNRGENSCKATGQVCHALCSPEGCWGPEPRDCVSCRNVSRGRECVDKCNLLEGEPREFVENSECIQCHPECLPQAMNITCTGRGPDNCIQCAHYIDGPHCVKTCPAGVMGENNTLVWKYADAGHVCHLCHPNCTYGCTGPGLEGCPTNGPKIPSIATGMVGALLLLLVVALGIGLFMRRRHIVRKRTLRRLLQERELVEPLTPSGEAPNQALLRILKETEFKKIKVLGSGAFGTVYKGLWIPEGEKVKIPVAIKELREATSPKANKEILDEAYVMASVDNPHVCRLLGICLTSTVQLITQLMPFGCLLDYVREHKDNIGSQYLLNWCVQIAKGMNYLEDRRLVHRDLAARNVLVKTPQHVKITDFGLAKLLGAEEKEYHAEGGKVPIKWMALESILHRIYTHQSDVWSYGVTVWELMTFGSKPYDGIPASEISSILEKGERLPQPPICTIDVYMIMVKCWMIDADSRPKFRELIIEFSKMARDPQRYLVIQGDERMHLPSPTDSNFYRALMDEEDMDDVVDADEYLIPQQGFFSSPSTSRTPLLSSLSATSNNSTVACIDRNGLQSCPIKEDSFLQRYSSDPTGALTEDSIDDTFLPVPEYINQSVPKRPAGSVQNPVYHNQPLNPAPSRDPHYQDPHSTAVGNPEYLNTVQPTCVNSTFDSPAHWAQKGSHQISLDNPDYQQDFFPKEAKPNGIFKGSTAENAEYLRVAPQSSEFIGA
Receptor tyrosine-protein kinase erbB-2, sequence (P04626 whole entry): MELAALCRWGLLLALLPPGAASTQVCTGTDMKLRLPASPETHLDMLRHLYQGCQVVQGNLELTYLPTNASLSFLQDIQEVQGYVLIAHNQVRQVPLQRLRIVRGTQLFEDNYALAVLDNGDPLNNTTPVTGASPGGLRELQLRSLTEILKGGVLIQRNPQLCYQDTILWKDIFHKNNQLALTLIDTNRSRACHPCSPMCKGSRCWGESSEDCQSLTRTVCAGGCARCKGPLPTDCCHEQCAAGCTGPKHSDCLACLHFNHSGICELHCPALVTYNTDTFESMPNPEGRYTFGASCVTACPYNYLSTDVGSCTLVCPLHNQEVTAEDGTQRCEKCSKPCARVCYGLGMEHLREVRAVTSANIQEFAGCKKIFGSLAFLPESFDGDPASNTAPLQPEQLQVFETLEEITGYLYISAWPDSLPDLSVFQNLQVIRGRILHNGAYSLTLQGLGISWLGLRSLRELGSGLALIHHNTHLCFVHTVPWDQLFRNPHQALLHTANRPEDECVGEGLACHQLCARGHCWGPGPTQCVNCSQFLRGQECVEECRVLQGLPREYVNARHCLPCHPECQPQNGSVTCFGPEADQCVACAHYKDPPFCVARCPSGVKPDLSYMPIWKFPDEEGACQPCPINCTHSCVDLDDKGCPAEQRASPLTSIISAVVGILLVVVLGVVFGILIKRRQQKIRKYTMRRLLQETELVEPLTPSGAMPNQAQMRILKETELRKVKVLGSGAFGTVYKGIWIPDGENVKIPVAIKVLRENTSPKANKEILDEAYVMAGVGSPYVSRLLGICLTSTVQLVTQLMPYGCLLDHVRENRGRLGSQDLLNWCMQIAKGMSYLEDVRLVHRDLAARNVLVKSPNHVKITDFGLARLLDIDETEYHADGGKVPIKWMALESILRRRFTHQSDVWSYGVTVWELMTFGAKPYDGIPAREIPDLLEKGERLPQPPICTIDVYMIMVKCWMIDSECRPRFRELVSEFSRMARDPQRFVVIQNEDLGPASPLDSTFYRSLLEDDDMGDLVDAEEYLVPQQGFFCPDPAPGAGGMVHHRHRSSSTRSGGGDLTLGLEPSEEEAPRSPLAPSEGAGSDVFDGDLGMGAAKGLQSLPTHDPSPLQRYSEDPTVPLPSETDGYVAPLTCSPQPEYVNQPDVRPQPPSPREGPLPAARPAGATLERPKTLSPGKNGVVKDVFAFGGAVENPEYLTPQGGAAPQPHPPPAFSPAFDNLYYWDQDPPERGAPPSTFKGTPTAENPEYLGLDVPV
Mast/stem cell growth factor receptor Kit, sequence (P10721 whole entry): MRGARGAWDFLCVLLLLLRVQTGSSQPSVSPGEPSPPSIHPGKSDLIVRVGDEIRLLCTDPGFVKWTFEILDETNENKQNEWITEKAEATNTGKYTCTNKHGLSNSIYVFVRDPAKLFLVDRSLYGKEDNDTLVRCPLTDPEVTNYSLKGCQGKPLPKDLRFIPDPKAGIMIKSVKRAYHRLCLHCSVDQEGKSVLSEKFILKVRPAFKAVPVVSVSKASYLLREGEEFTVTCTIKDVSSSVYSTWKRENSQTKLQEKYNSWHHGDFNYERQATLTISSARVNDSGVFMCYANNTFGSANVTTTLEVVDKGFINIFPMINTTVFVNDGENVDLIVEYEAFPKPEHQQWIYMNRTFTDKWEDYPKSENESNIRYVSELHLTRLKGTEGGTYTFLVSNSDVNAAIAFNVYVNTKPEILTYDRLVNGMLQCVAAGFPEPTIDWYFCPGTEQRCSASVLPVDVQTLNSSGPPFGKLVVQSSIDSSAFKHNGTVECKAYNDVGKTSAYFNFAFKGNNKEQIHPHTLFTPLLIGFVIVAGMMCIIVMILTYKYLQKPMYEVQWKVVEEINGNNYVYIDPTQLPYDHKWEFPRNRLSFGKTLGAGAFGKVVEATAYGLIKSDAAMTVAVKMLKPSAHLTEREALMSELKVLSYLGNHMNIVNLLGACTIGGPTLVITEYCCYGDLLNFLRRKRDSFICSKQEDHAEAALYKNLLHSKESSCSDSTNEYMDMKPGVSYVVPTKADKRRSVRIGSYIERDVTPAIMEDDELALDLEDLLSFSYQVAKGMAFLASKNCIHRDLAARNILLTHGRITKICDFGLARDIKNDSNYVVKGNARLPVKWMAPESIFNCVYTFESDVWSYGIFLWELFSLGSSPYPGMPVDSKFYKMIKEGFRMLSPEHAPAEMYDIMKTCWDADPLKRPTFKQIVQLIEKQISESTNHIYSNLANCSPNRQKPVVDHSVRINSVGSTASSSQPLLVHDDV

For `O=C(Nc1cc2c(Nc3ccc(F)c(Cl)c3)ncnc2cc1O[C@H]1CCOC1)N1CCCC(F)(F)C1`, the IC50 [1] was 43200 nM, the IC50 [2] was 1890 nM and the IC50 [3] was 884 nM. For the same compound, the IC50 [4] was 935 nM.

With `COCCNC(=O)Nc1cc2c(Nc3ccc(F)c(Cl)c3)ncnc2cc1O[C@H]1CCOC1` the IC50 [1] was 8300 nM, the IC50 [2] was 3560 nM and the IC50 [3] was 479 nM. The IC50 [4] was 387 nM.

For `CN(C)C/C=C/C(=O)Nc1cc2c(Nc3ccc(F)c(Cl)c3)ncnc2cc1O[C@H]1CCOC1` [AFATINIB], the IC50 [1] was 148 nM.

With `COCCCNC(=O)Nc1cc2c(Nc3ccc(F)c(Cl)c3)ncnc2cc1O[C@H]1CCOC1` the IC50 [1] was 22700 nM, the IC50 [2] was 1660 nM and the IC50 [3] was 197 nM. It also gave an IC50 [4] of 4100 nM.

With `O=C(Nc1cc2c(Nc3ccc(F)c(Cl)c3)ncnc2cc1O[C@H]1CCOC1)N1CC(F)C1` the IC50 [1] was 13400 nM, the IC50 [2] was 2170 nM and the IC50 [3] was 967 nM. For the same compound, the IC50 [4] was 5780 nM.

`O=C(NCCN1CCCCC1)Nc1cc2c(Nc3ccc(F)c(Cl)c3)ncnc2cc1O[C@H]1CCOC1` showed an IC50 [1] of 3200 nM, an IC50 [2] of 447 nM and an IC50 [3] of 165 nM. It also gave an IC50 [4] of 116 nM.

`O=C(Nc1cc2c(Nc3ccc(F)c(Cl)c3)ncnc2cc1O[C@H]1CCOC1)N1CCC(F)(F)CC1` was tested, and the IC50 [1] was 32300 nM, the IC50 [2] was 5310 nM and the IC50 [3] was 859 nM. It also gave an IC50 [4] of 1860 nM.

Work on `O=C(Nc1cc2c(Nc3ccc(F)c(Cl)c3)ncnc2cc1O[C@H]1CCOC1)N1CCC2(CC1)OCCO2` yielded an IC50 [1] of 32200 nM, an IC50 [2] of 5190 nM and an IC50 [3] of 1720 nM. It also gave an IC50 [4] of 2180 nM.

With `O=C(Nc1cc2c(Nc3ccc(F)c(Cl)c3)ncnc2cc1O[C@H]1CCOC1)N1CCN(CCO)CC1` the IC50 [1] was 18200 nM, the IC50 [2] was 4210 nM and the IC50 [3] was 331 nM. For the same compound, the IC50 [4] was 1130 nM.

`CCN(CC)CCCNC(=O)Nc1cc2c(Nc3ccc(F)c(Cl)c3)ncnc2cc1O[C@H]1CCOC1` gave an IC50 [5] greater than 10000 nM, an IC50 [6] greater than 10000 nM and an IC50 [7] greater than 10000 nM. The IC50 [8] was greater than 10000 nM, the IC50 [9] was greater than 10000 nM and the IC50 [10] was greater than 10000 nM. It also gave an IC50 [11] greater than 10000 nM, an IC50 [12] of 566 nM and an IC50 [13] greater than 10000 nM. The IC50 [14] was 347 nM, the IC50 [15] was 8 nM and the IC50 [16] was 78 nM. The IC50 [1] was 4300 nM, the IC50 [2] was 3060 nM and the inhibition [17] was “Active”. The inhibition [18] was “Active”, the inhibition [19] was “Active” and the inhibition [20] was “Dose-dependent effect”. The IC50 [3] was 32 nM, the IC50 [4] was 196 nM and the IC50 [21] was greater than 10000 nM.

`C#CCNC(=O)Nc1cc2c(Nc3ccc(F)c(Cl)c3)ncnc2cc1O[C@H]1CCOC1` showed an IC50 [1] of 14800 nM, an IC50 [2] of 374 nM and an IC50 [3] of 232 nM. It also gave an IC50 [4] of 3730 nM.

Compound `O=C(Nc1cc2c(Nc3ccc(F)c(Cl)c3)ncnc2cc1O[C@H]1CCOC1)N1CCC(F)(F)C1` has an IC50 [1] of 4500 nM, an IC50 [2] of 3120 nM and an IC50 [3] of 1580 nM. The IC50 [4] was 1480 nM.

`CN1CCN(C(=O)Nc2cc3c(Nc4ccc(F)c(Cl)c4)ncnc3cc2O[C@H]2CCOC2)CC1` was tested, and the IC50 [1] was 12300 nM, the IC50 [2] was 5580 nM and the IC50 [3] was 464 nM. It also gave an IC50 [4] of 675 nM.

In the case of `O=C(Nc1cc2c(Nc3ccc(F)c(Cl)c3)ncnc2cc1O[C@H]1CCOC1)N1CCC(N2CCCC2)CC1`, the IC50 [1] is reported as 9600 nM, the IC50 [2] is reported as 1590 nM and the IC50 [3] is reported as 265 nM. It also gave an IC50 [4] of 317 nM.

`CCN(CC)CCNC(=O)Nc1cc2c(Nc3ccc(F)c(Cl)c3)ncnc2cc1O[C@H]1CCOC1` showed an IC50 [1] of 5200 nM, an IC50 [2] of 2240 nM and an IC50 [3] of 365 nM. The IC50 [4] was 249 nM.
